From ChEMBL document CHEMBL1629470, “Synthesis, biological evaluation and docking studies of 4-amino-tetrahydroquinazolino[3,2-e]purine derivatives” (Eur J Med Chem, 2010)

Key:
[1] = molecular target: Proto-oncogene tyrosine-protein kinase Src (Homo sapiens) (UniProt P12931); assay: Inhibition of Src at 10 uM after 20 mins
L1210 = assay: Cytotoxicity against mouse L1210 cells after 4 hrs by MTT assay; type: functional

Chain of Proto-oncogene tyrosine-protein kinase Src (Homo sapiens) (P12931 2-536 limits assumed): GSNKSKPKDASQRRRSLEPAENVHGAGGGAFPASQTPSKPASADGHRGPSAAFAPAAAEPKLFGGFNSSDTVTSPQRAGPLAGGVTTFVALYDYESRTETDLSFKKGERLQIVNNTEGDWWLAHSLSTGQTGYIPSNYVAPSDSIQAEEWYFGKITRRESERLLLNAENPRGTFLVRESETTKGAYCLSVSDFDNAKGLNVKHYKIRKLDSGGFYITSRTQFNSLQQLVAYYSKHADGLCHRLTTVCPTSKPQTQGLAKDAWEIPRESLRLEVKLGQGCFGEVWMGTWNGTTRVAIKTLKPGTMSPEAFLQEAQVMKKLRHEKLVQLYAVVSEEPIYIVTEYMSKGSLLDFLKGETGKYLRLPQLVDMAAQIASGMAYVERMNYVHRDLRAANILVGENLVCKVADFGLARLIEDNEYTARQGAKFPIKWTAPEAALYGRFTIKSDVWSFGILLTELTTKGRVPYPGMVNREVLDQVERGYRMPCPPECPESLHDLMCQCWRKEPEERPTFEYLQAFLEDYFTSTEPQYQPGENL

**Q.** `Nc1ncnc2c1nc1n2Cc2ccccc2N1` was tested. Which inhibition [1] did it give?
**A.** 72%

**Q.** What about the Activity (L1210) of the same compound?
**A.** 7.3 µM

**Q.** With `c1ccc(Nc2ncnc3c2nc2n3Cc3ccccc3N2)cc1` as the compound, how does the inhibition [1] read?
**A.** 58%

**Q.** And the Activity (L1210)?
**A.** 34.3 µM

**Q.** Which results are given for `Cl.Clc1ccccc1Nc1ncnc2c1nc1n2Cc2ccccc2N1CCN1CCOCC1`?
**A.** inhibition [1]: 20%; Activity (L1210): 11.9 µM

**Q.** With `Nc1nc(Cl)nc2c1nc1n2Cc2ccccc2N1` as the compound, how does the inhibition [1] read?
**A.** 49%

**Q.** And the Activity (L1210)?
**A.** 23 µM

**Q.** What does the source list for `Brc1ccccc1Nc1ncnc2c1nc1n2Cc2ccccc2N1CCN1CCOCC1.Cl`?
**A.** inhibition [1]: 30%; Activity (L1210): 21.9 µM

**Q.** `CCN(CC)CCN1c2ccccc2Cn2c1nc1c(Nc3ccccc3)ncnc12.Cl` was tested. Which inhibition [1] did it give?
**A.** 0%

**Q.** And the Activity (L1210)?
**A.** 17.9 µM

**Q.** How did the inhibition [1] turn out when `Cl.c1ccc(Nc2ncnc3c2nc2n3Cc3ccccc3N2CCN2CCOCC2)cc1` was run?
**A.** 15%

**Q.** And the Activity (L1210)?
**A.** 16.1 µM

**Q.** What does the source list for `Cl.c1ccc(CNc2ncnc3c2nc2n3Cc3ccccc3N2CCN2CCOCC2)cc1`?
**A.** inhibition [1]: 9%; Activity (L1210): 31 µM
